Two molecules from PMC3478977, “Enabling structure-based drug design of Tyk2 through co-crystallization with a stabilizing aminoindazole inhibitor” (BMC Structural Biology, 2012) can be followed below.

SMILES strings stand for the structures.

In one test the target is T1, Jak2 (Homo sapiens, UniProt O60674).
T1 construct: purchased Upstate/Millipore #14–640
Briefly: trFRET kinase activity assay, Jak2. The class given is biochemical. To be noted: 1 μM ATP, mean and standard error; read-out: IC50, inhibition of Jak2 enzyme activity. As to the method: (§1) After 60 min incubation at room temperature, the reaction was quenched by addition of EDTA (final conc. 100 μM) and developed by addition of revelation reagents (final approximate concentrations: 30 mM HEPES pH 7.0, 0.06% BSA, 0.006% Tween-20, 0.24 M KF, 80 ng/mL PT66K (europium-labelled anti-phosphotyrosine antibody, cat #61T66KLB, Cisbio, Bedford, MA) and 3.12 μg/mL SAXL (Phycolink streptavidin-allophycocyanin acceptor, cat #PJ25S, Prozyme, San Leandro, CA)). The developed reaction was incubated in the dark either at 4°C overnight or at room temperature for ~1 h, then read with a time-resolved fluorescence detector (Rubystar, BMG Labtech) using a 337 nm laser for excitation and emission wavelengths of 620 nm and 665 nm. Within the linear range of the assay, this signal is directly related to phosphorylated product and was used to calculate IC50 values. Typically, seven-point inhibitor dilutions (5-fold; from 50 μM to 0.0032 μM) were used. IC50 values were calculated by fitting the following equation: […]
(§2) where [I] is total inhibitor concentration, Y is the percentage of activity (relative to that seen in no-inhibitor control) at a given inhibitor concentration, and Ymax is the maximum activity generated in the absence of inhibitor.
(§3) Purified Jak2 and Jak3 were purchased from Upstate/Millipore (cat numbers #14–640 and #14–629). […]

The next test addresses T2, Jak3 (Homo sapiens, UniProt P52333).
T2 construct: purchased Upstate/Millipore #14–629
T2 sequence (P52333 1-1124): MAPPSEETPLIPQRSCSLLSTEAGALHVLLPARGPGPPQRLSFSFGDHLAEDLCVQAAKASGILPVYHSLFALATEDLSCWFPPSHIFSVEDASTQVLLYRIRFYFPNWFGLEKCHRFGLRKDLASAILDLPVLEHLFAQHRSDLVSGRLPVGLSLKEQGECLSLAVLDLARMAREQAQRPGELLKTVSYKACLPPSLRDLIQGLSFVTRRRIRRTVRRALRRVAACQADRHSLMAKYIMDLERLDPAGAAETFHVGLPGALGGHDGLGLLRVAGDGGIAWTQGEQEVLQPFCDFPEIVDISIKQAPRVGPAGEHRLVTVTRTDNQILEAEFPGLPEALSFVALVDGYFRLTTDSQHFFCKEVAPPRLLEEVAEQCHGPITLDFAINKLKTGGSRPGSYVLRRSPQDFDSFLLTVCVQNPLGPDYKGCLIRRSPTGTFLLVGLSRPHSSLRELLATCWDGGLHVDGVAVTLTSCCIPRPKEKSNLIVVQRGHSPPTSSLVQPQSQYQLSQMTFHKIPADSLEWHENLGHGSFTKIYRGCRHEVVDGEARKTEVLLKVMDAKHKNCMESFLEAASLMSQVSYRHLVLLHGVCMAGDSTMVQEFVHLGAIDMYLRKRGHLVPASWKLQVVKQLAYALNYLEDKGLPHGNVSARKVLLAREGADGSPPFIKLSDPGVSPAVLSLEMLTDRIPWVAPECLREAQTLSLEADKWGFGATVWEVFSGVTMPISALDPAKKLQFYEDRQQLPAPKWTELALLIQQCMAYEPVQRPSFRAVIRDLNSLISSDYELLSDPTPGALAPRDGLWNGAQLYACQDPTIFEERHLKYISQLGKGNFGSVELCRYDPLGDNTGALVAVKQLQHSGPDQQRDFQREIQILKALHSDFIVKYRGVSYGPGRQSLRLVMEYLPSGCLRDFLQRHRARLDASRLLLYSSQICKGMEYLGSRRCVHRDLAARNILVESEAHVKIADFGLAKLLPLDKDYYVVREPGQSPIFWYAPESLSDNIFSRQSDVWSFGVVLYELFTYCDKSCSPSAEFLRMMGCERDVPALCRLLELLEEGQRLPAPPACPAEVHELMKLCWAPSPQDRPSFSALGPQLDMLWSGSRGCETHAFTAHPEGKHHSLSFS
Nature of the test: trFRET kinase activity assay, Jak3. The format is biochemical. The settings on record: 1 μM ATP, mean and standard error; read-out: IC50, inhibition of Jak3 enzyme activity. As to the method: as §1, §2, §3

Another test has as its target T3, Jak1 (Homo sapiens, UniProt P23458).
T3 construct: Jak1 (residues 845–1142) was expressed in Sf9 cells; GST; made in house; host or cells: Sf9 insect cells
Briefly: trFRET kinase activity assay, Jak1. The class given is biochemical. To be noted: Jak1 (845–1142) GST fusion, 1 μM ATP, mean and standard error; read-out: IC50, inhibition of Jak1 enzyme activity. On the procedure:
as §1, §2, §3

Test [1] has as its system Mouse Tyk2 kinase domain (residues 870–1170; Asp1016Ala mutant). Nature of the test: Partial proteolysis of Tyk2 kinase domain by thermolysin with and without ligand. The settings on record: 30 μM compound, sum of ~27 and ~29 kDa peaks, 0 to 90 minutes, room temperature. As to the method:
Mouse Tyk2 kinase domain (0.25 mg/mL, residues 870–1170; Asp1016Ala mutant) was incubated for 0 to 90 minutes with thermolysin (0.25 mg/mL) at room temperature in 50 mM HEPES pH 6.7, 150 mM NaCl, 5% glycerol, and 2.5 mM CaCl2 in the presence and absence of 30 μM Compound 2. EDTA (final conc 100 mM) was used as stop solution to quench the proteolysis reactions. Samples were separated by use of a Caliper LC90 system and the remaining substrate and product bands were quantitated. Intact (undigested) Tyk2 ran in this system at ~29 kDa. Addition of thermolysin yielded a partial digestion product of ~27 kDa (Additional file 1: Figure 1) within 5 minutes, which was unaffected by addition of Compound 2. Subsequent degradation products were strongly influenced by the presence of Compound 2 (Additional file 1: Figure S1). Therefore the sum of the intensities of the 29 and 27 kDa peaks was used as a measure of inhibitor-dependent resistance to thermolysin digestion. […]
In the absence of inhibitor, a 20 kDa fragment is generated after ~1-5 minutes and subsequently degraded. […] Quantitated values of Tyk2 peaks of ~27 and ~29 kDa during digestion with thermolysin, in the absence or presence of 30 μM Compound 2 were used to monitor overall degradation rates in Figure 2.

The target of the next test is T4, thermolysin (Bacillus thermoproteolyticus, UniProt P00800).
T4 sequence (P00800 233-548): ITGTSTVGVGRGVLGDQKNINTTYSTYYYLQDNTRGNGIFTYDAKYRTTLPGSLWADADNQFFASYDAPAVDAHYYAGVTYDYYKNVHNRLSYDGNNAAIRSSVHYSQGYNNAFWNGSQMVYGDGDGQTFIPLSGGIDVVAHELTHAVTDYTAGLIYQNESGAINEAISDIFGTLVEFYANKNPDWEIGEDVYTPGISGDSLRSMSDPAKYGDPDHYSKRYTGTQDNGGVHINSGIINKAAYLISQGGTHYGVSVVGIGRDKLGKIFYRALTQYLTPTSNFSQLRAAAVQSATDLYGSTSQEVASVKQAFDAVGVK
Nature of the test: Digestion of BSA control by thermolysin. The class given is biochemical. The settings on record: BSA control digested by thermolysin in the same buffer.

Another test addresses T5, human Tyk2 (Homo sapiens, UniProt P29597).
T5 construct: human Tyk2 enzyme (residues 880–1185); expressed in Sf9 cells; His tag (cleavable); TEV site per construct name His-Tev-huTyk2 (880–1185)-Flag) (N); Flag (C); made in house; host or cells: Sf9 insect cells
T5 sequence (P29597 880-1185): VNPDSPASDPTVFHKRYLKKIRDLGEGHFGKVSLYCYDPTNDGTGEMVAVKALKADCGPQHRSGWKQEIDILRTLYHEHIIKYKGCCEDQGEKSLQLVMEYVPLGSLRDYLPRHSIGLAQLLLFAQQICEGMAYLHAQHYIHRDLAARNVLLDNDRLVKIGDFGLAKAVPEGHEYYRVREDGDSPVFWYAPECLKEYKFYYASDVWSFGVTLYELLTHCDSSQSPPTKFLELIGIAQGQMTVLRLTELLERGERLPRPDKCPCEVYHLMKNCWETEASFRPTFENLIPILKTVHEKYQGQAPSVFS
Nature of the test: trFRET kinase activity assay, Tyk2. The format is biochemical. The settings on record: human Tyk2 (880–1185), 1 μM ATP, mean and standard error; read-out: IC50, inhibition of Tyk2 enzyme activity. As to the method: as §1, §2

T3 sequence (P23458 845-1142, species assumed): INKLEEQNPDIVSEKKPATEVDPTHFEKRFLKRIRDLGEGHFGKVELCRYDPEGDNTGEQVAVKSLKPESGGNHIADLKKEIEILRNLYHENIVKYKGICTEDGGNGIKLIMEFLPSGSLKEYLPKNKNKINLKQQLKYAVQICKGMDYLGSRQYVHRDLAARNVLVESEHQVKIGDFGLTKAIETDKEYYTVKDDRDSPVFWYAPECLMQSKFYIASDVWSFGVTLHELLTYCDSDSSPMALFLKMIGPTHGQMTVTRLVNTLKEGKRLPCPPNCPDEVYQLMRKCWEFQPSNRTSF
T1 sequence (O60674 808-1132 limits assumed): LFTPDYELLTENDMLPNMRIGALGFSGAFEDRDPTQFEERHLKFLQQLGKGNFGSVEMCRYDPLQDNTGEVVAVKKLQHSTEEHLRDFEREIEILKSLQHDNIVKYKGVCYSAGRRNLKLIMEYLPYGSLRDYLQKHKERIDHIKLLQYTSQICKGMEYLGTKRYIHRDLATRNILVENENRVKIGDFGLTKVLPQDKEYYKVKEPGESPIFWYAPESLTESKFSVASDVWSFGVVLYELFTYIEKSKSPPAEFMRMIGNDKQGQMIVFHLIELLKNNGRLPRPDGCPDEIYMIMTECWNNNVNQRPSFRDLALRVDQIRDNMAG

The IC50 is the point on the concentration scale where inhibition reaches its midpoint. With `Nc1n[nH]c2ccc(-c3ccc(NS(=O)(=O)c4cccc(Cl)c4)cc3)cc12` [Compound 1, N-[4-(3-Amino-1H-indazol-5-yl)-phenyl]-3-chloro-benzenesulfonamide], the IC50 on Jak2 was 7 ± 2 nM; on Jak3 it was 42 ± 1 nM; on Jak1, 5 ± 0.4 nM.

As for `O=C(Nc1n[nH]c2ccc(-c3ccc(NS(=O)(=O)c4cccc(Cl)c4)cc3)cc12)c1ccco1` [Compound 2, Furan-2-carboxylic acid {5-[4-(3-chloro-benzenesulfonylamino)-phenyl]-1 H-indazol-3-yl}amide], the IC50 at Jak2 was 4 ± 1 nM; at Jak3, 41 ± 3 nM; on human Tyk2, less than 3 nM; on Jak1 it was 10 ± 0.1 nM. For the same molecule, in test [1], the “reduction of the rate of degradation of the enzyme to smaller forms (<27 kDa) by thermolysin” value was 13 fold. In addition, the “inhibition of thermolysin protease activity (BSA digestion)” value at thermolysin is “not an inhibitor of thermolysin protease activity”.
